# According to patent publication US10603319B2, “Pyrimidine derivatives and their use in treating or preventing a respiratory syncytial virus infection” (REVIRAL LIMITED, priority 2016, dated 2020):
# “And” between values parts separate entries of the source, which are not always exact repeats. Identical values can stand only once.
# Legend:
# [1] = Liver microsomal stability, dog; format: in vitro ADME; details: male, Beagle, pooled liver microsomes, pH 7.4, 0.5 mg/mL protein, read-out: Liver Microsomal Stability (T1/2/mins) dog
# Method: (§1) Microsomal Incubation: Experimental Procedure
# (§2) Pooled human liver microsomes (pooled male and female), pooled rat liver microsomes (male Sprague Dawley rats) and pooled dog liver microsomes (male Beagle dog) are purchased from a reputable commercial supplier and stored at −80° C. prior to use.
# (§3) Microsomes (final protein concentration 0.5 mg/mL), 0.1 M phosphate buffer pH 7.4 and test compound (final substrate concentration 3 μM; final DMSO concentration 0.25%) are pre-incubated at 37° C. prior to the addition of NADPH (final concentration 1 mM) to initiate the reaction. The final incubation volume is 50 μL. A control incubation is included for each compound tested where 0.1 M phosphate buffer pH 7.4 is added instead of NADPH (minus NADPH). Two control compounds are included with each species. All incubations are performed singularly for each test compound.
# (§4) Compounds are incubated for 0, 5, 15, 30 and 45 min. The control (minus NADPH) is incubated for 45 min only. […] Following protein precipitation, the sample supernatants are combined in cassettes of up to 4 compounds, internal standard is added and samples analysed by LC-MS/MS. From a plot of ln peak area ratio (compound peak area/internal standard peak area) against time, the gradient of the line is determined. Subsequently, half-life and intrinsic clearance are calculated
# [2] = Liver microsomal stability, rat; format: in vitro ADME, Sprague Dawley rats; details: male, Sprague Dawley, pooled liver microsomes, pH 7.4, 0.5 mg/mL protein, read-out: Liver Microsomal Stability (T1/2/mins) rat
# Method: as §1, §2, §3, §4
# RSV A2 = experiment: Plaque Reduction Assay 1 (Vero cells, immunostaining); format: cell-based; details: two replicate values, read-out: RSV Plaque Reduction assays A2 (PRNT1) (n = 2) IC50
# Method: Plaque Reduction Assay 1: Vero cells were seeded in 96-well plates in a volume of 100 μL of Optimem supplemented with 3% FCS at a concentration of 4×10^4 cells per well. After an overnight incubation at 37° C. in a humidified 5% CO2 atmosphere, the monolayer of cells should be approximately 90% confluent. Antiviral compounds were titrated in pre-warmed Serum Free (SF) Optimem in a U-bottom 96 well plate. For compounds in a DMSO solution, titration in 100% DMSO was performed first and each concentration added individually to a 2× final concentration at 4% DMSO in SF media before mixing with virus (2% final DMSO with virus). Media was then removed from cells and replaced with PBS (100 μl/well). RSV stock was thawed and diluted in SF Optimem media to 4000 PFU/mLl. An equal volume of virus was added to compounds on the titration plate. PBS was removed from cells which were then inoculated with the virus/compound solution (50 μL/well). Cells were incubated for 2 h in a 37° C.+5% CO2 humidified incubator to allow infection. Inoculum was removed and media (Optimem+1% FCS) added to cells (100 μl/well). Cells were subsequently incubated for 48 h at 37° C.+5% CO2 in a humidified incubator. Immunostaining Procedure: Media was removed from cells and the monolayer washed with PBS. Cells were fixed with ice cold 80% Acetone in PBS (100 μl/well) for 20 mins at −20° C. Fixative was removed and cells are dried for 30 mins with plates inverted. Blocking solution (5% skim milk powder in PBS-T) was added to cells (150 μL/well) and plates were incubated for 30 mins at room temperature. Blocking solution was removed and plates washed once with PBS-T. Primary antibody in blocking solution was added to plates (50 μl/well) and incubated for 1 h at 37° C. Plates were then washed 3 times with PBS-T. Secondary antibody in blocking solution was added to plates ([…]) and incubated for 1 h at 37° C. in the dark. Plates were washed as above and then dried for 10 mins. Plates were scanned on the Odyssey Imager (Li-Cor Biosciences) at a resolution of […], medium quality and level 5 intensity in the […]. Data Analysis: Images obtained were saved and plaque numbers counted with the aid of computer imaging software. EC50 values for compounds were derived from dose response curves [three variable log(inhibitor) vs response] obtained using Graphpad Prism software.
# [3] = Liver microsomal stability, human; format: in vitro ADME; details: both sexes, pooled liver microsomes, pH 7.4, 0.5 mg/mL protein, read-out: Liver Microsomal Stability (T1/2/mins) human
# Method: as §1, §2, §3, §4
# RSV A2 VR-1540 = experiment: Plaque Reduction Assay 2 (HEp-2 cells, virospot count); format: cell-based; details: human respiratory syncytial virus, 24 h; RSV A2, HEp-2 cells, 1 day
# Text: Plaque Reduction Assay 2:
# This RSV plaque reduction assay is an infectivity assay which allows quantification of the number of infectious units in a distinct foci of RSV infection. This is indicated by zones of viral antigen detected by specific antibody staining within a monolayer of otherwise healthy tissue culture cells. As each plaque originates from a single infectious virus particle an accurate calculation of the anti-viral effect can be obtained by counting plaques in the presence and absence of an anti-viral compound. HEp-2 cells (ATCC, CCL23) were passaged in flasks and seeded in 96-well plates in DMEM containing antibiotics and supplemented with 10% FBS. During inoculation and subsequent incubation, cells were cultured in DMEM containing 3% FBS. 100 plaque forming unit (PFU)/well of RSV (RSV A2 VR-1540) was mixed with ten serial dilutions of compound. Subsequently, 100 μL of the virus/compound mixtures was added to confluent HEp-2 cell monolayers. The cells and virus/compound mixtures were incubated at 35° C. in a humidified 5% CO2 incubator for 1 day.
# Cells were washed twice with PBS before adding 50% v/v EtOH/MeOH, and then stored at −20° C. On the day of the staining, fixative was first removed from the plates. Plates were washed 3× with PBS. A pre-titrated amount of the primary antibody was added in 60 μL PBS/2% milk powder, and plates incubated for 1 h at rt. The plates were washed 3× with PBS/0.05% Tween20 before addition of goat anti-mouse horse radish peroxidase in 60 μL PBS/2% milk powder, and incubated for 1 h at rt. Following three wash steps with PBS/0.05% Tween20, 60 μL ready-to-use TrueBlue was added and plates were incubated at rt for 10-15 min before adding MilliQ water. Plates were washed once with water, incubated for 30-60 min and after removal of water, air-dried in the dark.
# Plates were scanned and analyzed using the Immunospot S6 UV analyzer, which is equipped with BioSpot analysis software for counting immunostained plaques (virospots). Plaque counts were used to calculate % infection relative to the mean of the spot count (SC) in the virus control wells for RSV. IC50/IC90 values were calculated as 50% or 90% reduction in signal, respectively, by interpolation of inhibition curves fitted with a 4-parameter nonlinear regression with a variable slope in GraphPad 5.0 (Prism).
compound,measurement,setting,value
"NC1CCN(c2ncc(CN3C(=O)C4(CC4)c4ccc(F)cc43)c(N[C@H]3CC[C@H](O)CC3)n2)C1 (some centres unmarked) [Compound 2, 1′-((2-(3-Aminopyrrolidin-1-yl)-4-(((1r,4r)-4-hydroxycyclohexyl)amino)pyrimidin-5-yl)methyl)-6′-fluorospiro[cyclopropane-1,3′-indolin]-2′-one]",half-life at 3 μM,[1],> 4 h
same,half-life at 3 μM,[2],2.17 h
same,IC50,RSV A2,18.9 nM and 4.63 nM
same,half-life at 3 μM,[3],2.82 h
same,IC50,RSV A2 VR-1540,58 nM
